# Reference: patent US10751303B2, “Method for shortening anti-infective therapy duration in subjects with infection” (INSTITUTE FOR CLINICAL PHARMACODYNAMICS, INC., priority 2015, dated 2020)
# “Also recorded” adds a separate entry of the source.
# Experiments:
# Format in all cases: cell-based
# E. coli JMI 21711R [1] = experiment: change in bacterial density in vitro over 24 hours (growth rate)
# Text: Moreover, note the impact of ascorbic acid on the time-course of levofloxacin antimicrobial activity.
# S. aureus ATCC 29213 [2] = experiment: levofloxacin MIC; settings: Staphylococcus aureus, ATCC29213
# E. coli JMI 21711R [3] = experiment: levofloxacin MIC; settings: Escherichia coli, JMI21711R
# S. aureus ATCC 29213 [4] = experiment: 10-day hollow-fiber in vitro infection model
# Text: The treatment arms and associated control arms differed only in sodium chloride concentration (0 and 8%) within the growth media. The initial bacterial inoculum in the model was 1×10^8 CFU/mL was selected to approximate that observed in high-density infections, such as pneumonia. Moreover, the 10-day study duration was selected to approximate that typical for pneumonia.
# Note that in the media in which the challenge isolate grew slowly (sodium chloride 8%), the time-until a reduction of bacterial density to 1×10^2 CFU/mL was 10 days. On the other hand, in the media in which the challenge isolate grew rapidly (sodium chloride 0%), the time-until reduction of bacterial density to 1×10^2 CFU/mL was 3 days.
# E. coli JMI 21711R [5] = settings: norepinephrine 500 μM, no levofloxacin
# Method: Each treatment arm and its associated control arm differed only in norepinephrine concentration (0, 500 μM) within the growth media.
# S. aureus ATCC 29213 [6] = experiment: change in bacterial density in vitro over 24 hours (growth rate in Mueller-Hinton II broth); settings: S. aureus ATCC 29213, in vitro over 24 hours, starting inoculum 1×10^6 CFU/mL, increasing sodium chloride concentration
# S. aureus ATCC 29213 [7] = experiment: 24-hour one-compartment dynamic in vitro infection model; settings: 10% sodium chloride, no levofloxacin
# Text: Not previously recognized is the potential to modulate the intrinsic bacterial replication rate in combination with an antimicrobial agent as a means to increase the rate and extent of bactericidal activity. […] Each treatment arm and associated control arm differed only in sodium chloride concentration (0, 8, and 10%) within the growth media. […] Note also that bacterial killing occurred only during bacterial replication.
smiles,measurement,setting,value
"O=C1O[C@H]([C@@H](O)CO)C(O)=C1O [ascorbic acid, Ascorbic acid]",bacterial replication rate relative to no treatment control,E. coli JMI 21711R [1]; ascorbic acid without levofloxacin,increases the bacterial replication rate relative to no treatment control
C[C@H]1COc2c(N3CCN(C)CC3)c(F)cc3c(=O)c(C(=O)O)cn1c23 [levofloxacin],MIC,S. aureus ATCC 29213 [2],0.125 µg/mL
same,MIC,E. coli JMI 21711R [3],8 µg/mL
same,reduction in time-until a reduction of bacterial density to 1×10^2 CFU/mL,S. aureus ATCC 29213 [4]; fast (sodium chloride 0%) versus slow (sodium chloride 8%) growing media,70%
same,time-until reduction of bacterial density to 1×10^2 CFU/mL,"S. aureus ATCC 29213 [4]; sodium chloride 0% (rapid growth), initial inoculum 1×10^8 CFU/mL, levofloxacin AUC:MIC ratio 520",3 days
same,time-until a reduction of bacterial density to 1×10^2 CFU/mL,"S. aureus ATCC 29213 [4]; sodium chloride 8% (slow growth), initial inoculum 1×10^8 CFU/mL, levofloxacin AUC:MIC ratio 520",10 days
"NCC(O)c1ccc(O)c(O)c1 (stereo not shown) [norepinephrine, Norepinephrine]",bacterial replication rate (change in bacterial density),"E. coli JMI 21711R [1]; starting inoculum 1×10^6 CFU/mL, increasing norepinephrine concentration",as norepinephrine concentration increases so too does the bacterial replication rate; also recorded: sped up
same,growth of control arm relative to no-treatment control arm,E. coli JMI 21711R [5],grew faster
[Cl-].[Na+] [sodium chloride],bacterial replication rate (change in bacterial density),S. aureus ATCC 29213 [6],"as sodium chloride concentration increases, the bacterial replication rate decreases; also recorded: slowed"
same,growth in control arm,S. aureus ATCC 29213 [7],delayed for four hours
